What all share (assay): FACS analysis on PI stained tumor cells, G2/M arrest
Format in all cases: cell-based
(In general: Flow cytometry measures light scatter and fluorescence of single cells or particles in a stream.)

In assay [1] the test system is Saos-2. The following applies: Homo sapiens; Saos-2 (Bone), 24 hrs; read-out: FACS Analysis G2M-Arrest EC50. An excerpt:
(§1) FACS Analysis on PI Stained Tumor Cells
(§2) Propidium iodine (PI) binds stoichiometrically to double stranded DNA and thus is a suitable agent to measure the DNA content of cells in order to determine the percentage of cells residing in various cell cycle stages (G0/1-, S- and G2/M-phases), whereas cells in G0 or G1 phase do have a diploid DNA content (2N) cells in G2 and M-phase (mitosis) do have a doubled (4N) DNA content.
(§3) Cell culture: The various human tumor cell lines can be purchased from American Type Culture Collection (ATCC) or the German Collection of Microorganisms and Cell Cultures (DSMZ) and cultivated in 75 to 175 cm^2 tissue culture flasks in the medium indicated by the supplier. The cells are maintained at 37° C. and 5% CO2 in a humidified atmosphere, with an appropriate split ratio. Logarithmically growing cells are used for the assays.
(§4) Assay conditions: On day one of the experiment 1×10^6 tumor cells are plated in 15 ml medium onto each 75 cm^2 tissue culture flask and the cultures are returned to the incubator. On the next day serial twofold dilutions (100× concentrated) of the inhibitor are prepared in tissue culture medium containing 10% DMSO. 150 μl of the 100× concentrated dilution is added to the 15 ml medium in the flask. As control DMSO is given into a separate flask to yield a final concentration of 0.1%. Typical final concentrations used are 1.6, […], 0.4, 0.2, 0.1, 0.05, 0.025, 0.0125, 0.00625 μM in medium containing 0.1% DMSO. After 24 hrs of incubation cells are harvested by 2× wash with PBS and subsequent addition of trypsin/EDTA. Trypsinized cells are washed off the plastic with 1% BSA in PBS. Non-adherent cells in the medium and cells in the PBS wash fluids are pelleted together with the trypsinized cells by centrifuging them for 5 min at 1000 rpm at 4° C. The supernatants are discarded and the pellet is washed twice with PBS. After aspiration of the supernatants pellets are resuspended in the residual PBS (˜100 μl). For cell fixation, 15 ml test tubes (Falcon) with 5 ml of 80% cold ethanol are prepared and the cell suspension is added slowly and kept for at least 2 h or overnight at minus 20° C. Fixed cells are pelleted, washed once with PBS and the cell pellet is then resuspended in 2 ml of 0.25% Triton X-100 in PBS. After 5 min incubation on ice, 5 ml of PBS is added to each sample and the sample is again centrifuged at 1000 rpm for 5 min at 4° C. The supernatant is discarded and the pellet is resuspended in 0.5 ml propidium iodine (PI) staining solution (0.1% RNase and 10 μg/ml propidium iodine in PBS). The cells are incubated for 20 min in the dark and subsequently transferred to 5 ml polystyrene round-bottom tubes.
(§5) Data analysis: Analysis of the DNA content of the cells can be performed using a FACS analyzer equipped with an argon laser (500 mW, emission 488 nm) and the use of the DNA Cell Quest analysis software (Beckton Dickinson). The logarithmic PI fluorescence is determined in a band-pass filter (Beckton Dickinson 585/43). Quantification of the cell populations residing in the individual cell cycle phases (e.g. G0/G1-, S- and G2/M-phases) is done with the ModFit LT software package from Becton Dickinson. An EC50 value for cells arrested at the G2/M-phase of the cell cycle is calculated by using a sigmoidal curve analysis program (Graph Pad Prism version 3.03).

Assay [2] concerns Raji. The following applies: Homo sapiens; Raji (Lymphoma), 24 hrs; read-out: FACS Analysis G2M-Arrest EC50.
Text: as §1, §2, §3, §4, §5

Assay [3] deals with A549. The note with it: Homo sapiens; A549 (Lung), 24 hrs; read-out: FACS Analysis G2M-Arrest EC50.
Text: as §1, §2, §3, §4, §5

For assay [4], the system named is GRANTA-519. The following applies: Homo sapiens; GRANTA-519 (Lymphoma), 24 hrs; read-out: FACS Analysis G2M-Arrest EC50.
Text: as §1, §2, §3, §4, §5

Assay [5] relates to FaDu. The following applies: Homo sapiens; FaDu (Head and Neck), 24 hrs; read-out: FACS Analysis G2M-Arrest EC50.
Text: as §1, §2, §3, §4, §5

In assay [6] the test system is HepG2. The note with it: Homo sapiens; HepG2 (Liver), 24 hrs; read-out: FACS Analysis G2M-Arrest EC50.
Text: as §1, §2, §3, §4, §5

Assay [7] has as its system NCI-H520. The note with it: Homo sapiens; NCI-H520 (Lung), 24 hrs; read-out: FACS Analysis G2M-Arrest EC50.
Text: as §1, §2, §3, §4, §5

Assay [8] deals with PC-3. The following applies: Homo sapiens; PC-3 (Prostate), 24 hrs; read-out: FACS Analysis G2M-Arrest EC50.
Text: as §1, §2, §3, §4, §5

Assay [9] deals with H4. The note with it: Homo sapiens; H4 (Brain), 24 hrs; read-out: FACS Analysis G2M-Arrest EC50.
Text: as §1, §2, §3, §4, §5

The test system of assay [10] is MDA-MB-435S. The note with it: Homo sapiens; MDA-MB-435S (Breast), 24 hrs; read-out: FACS Analysis G2M-Arrest EC50.
Text: as §1, §2, §3, §4, §5

The test system of assay [11] is A431. The note with it: Homo sapiens, A-431; A431 (Vulva), 24 hrs; read-out: FACS Analysis G2M-Arrest EC50.
Text: as §1, §2, §3, §4, §5

For assay [12], the system named is HeLa S3. The following applies: Homo sapiens; HeLa S3 (Cervix), 24 hrs; read-out: FACS Analysis G2M-Arrest EC50.
Text: as §1, §2, §3, §4, §5

For assay [13], the system named is NCI-H460. The following applies: Homo sapiens; NCI-H460 (Lung), 24 hrs; read-out: FACS Analysis G2M-Arrest EC50.
Text: as §1, §2, §3, §4, §5

Assay [14] has as its system SKOV-3. The note with it: Homo sapiens, SK-OV-3; SKOV-3 (Ovary), 24 hrs; read-out: FACS Analysis G2M-Arrest EC50.
Text: as §1, §2, §3, §4, §5

The subject of assay [15] is BxPC-3. The following applies: Homo sapiens; BxPC-3 (Pancreas), 24 hrs; read-out: FACS Analysis G2M-Arrest EC50.
Text: as §1, §2, §3, §4, §5

What is called EC50 is the concentration needed to bring the measured effect to its halfway point.

Consider `CC[C@@H]1C(=O)N(C)c2cnc(Nc3ccc(C(=O)NC4CCN(C)CC4)cc3OC)nc2N1C1CCCC1` [4-[[(7R)-8-cyclopentyl-7-ethyl-5,6,7,8-tetrahydro-5-methyl-6-oxo-2-pteridinyl]amino]-3-methoxy-N-(1-methyl-4-piperidinyl)-benzamide], for which the half-maximal effective concentration (EC50) in assay [1] was 11 nM; in assay [2], 20 nM; in assay [3], 14 nM; in assay [4], 12 nM; in assay [5], 7 nM; in assay [6] it was 39 nM. Moreover, the EC50 in assay [7] is 18 nM; in assay [8] it was 12 nM; in [9], 39 nM; in assay [10] it was 38 nM; in [11], 6 nM; in assay [12], 16 nM. Also, the EC50 in assay [13] turned out to be 32 nM; in [14], 11 nM; in assay [15] it was 22 nM.

The record behind these values is patent publication US8058270B2, “Dihydropteridinones for the treatment of cancer diseases” (Boehringer Ingelheim International GmbH, priority 2004, dated 2011).
